These results are taken from patent publication US20260265754A1, “CHK1-TARGETING SIRNAS CHEMICALLY MODIFIED WITH GEMCITABINE” (Sirnaomics, Inc., priority 2024, published 2026).

Counter-ions that a name gives are not always drawn. d = 2'-deoxy (DNA); m = 2'-O-methyl; f = 2'-fluoro A value given as a limit tells only on which side of the number the result lay.

Data set [1] relates to OVCAR-3 (ovarian cancer) cells. Description: Cell viability assay, lipofectamine transfection, OVCAR-3. Particulars: OVCAR-3 cells, FIG. 2L. Type of data set: cell-based. The protocol:
(§1) Cells were seeded in 384-well plates at a density of 0.3×10^3 to 1×10^3 cells/well. On the next day, cells were treated with serially diluted gemcitabine or siRNAs delivered by Lipofectamine RNAiMAX (Life Technologies, Carlsbad, CA). Ninety-six (96) hours after addition of gemcitabine or transfection reagent, the number of viable cells was determined using CellTiter-Glo(R)-2.0 reagent (Promega, Madison, WI) by measuring luminescent signal on a Cytation 5 plate reader (BioTek Inc, Winooski, VT). All values were compared to values generated for cells treated with non-silencing (NS) siRNA or to non-treated control and reported as the percentage cell viability. Values represent the mean±SD (n=4). All values were normalized to values generated for cells treated with a non-silencing siRNA and reported as the percentage cell viability. Calculation ofEC50 values. The EC50 values of the Gemcitabine, or Gemcitabine-modified siRNAs, (half-maximal effective concentration) were derived from a sigmoidal dose-response (variable slope) curve using GraphPad Prism 10.0.2(232) software (GraphPad Software, San Diego, Ca).

For another data set, the system named is H358 cells (KRAS G12C). Kind of data set: Cell viability assay (CellTiter-Glo), lipofectamine transfection, H358. Type of data set: cell-based. The protocol:
(§2) All cell lines were obtained from ATCC (Rockville, MD). Cells were cultured in standard media supplemented with 10% FBS: Panc 10.05, H1299 and H358 in RPMI-1640 Medium, MiaPaCa-2, HT29 and MDA-MB-231 in DMEM, LS180 in EMEM. All media were obtained from ATCC (Rockville, MD).
as §1, with “viability.” for “viability. Calculation ofEC50 values. The EC50 values of the Gemcitabine, or Gemcitabine-modified siRNAs, (half-maximal effective concentration) were derived from a sigmoidal dose-response (variable slope) curve using GraphPad Prism 10.0.2(232) software (GraphPad Software, San Diego, Ca).”
(§3) Calculation ofEC50 values. The EC50 values of the Gemcitabine, or Gemcitabine-modified siRNAs, (half-maximal effective concentration) were derived from a sigmoidal dose-response (variable slope) curve using GraphPad Prism 10.0.2(232) software (GraphPad Software, San Diego, Ca). […]
(In ATP-based viability assays light output follows the ATP content of the culture.)

Data set [2] deals with MiaPaCa-2 (pancreatic cancer) cells. Description: Cell viability assay (CellTiter-Glo), lipofectamine transfection, MiaPaCa-2. The format is cell-based. The conditions noted are these: for Improvement of dose response over gemcitabine alone: MiaPaca2 cells; for Activity/efficacy in reducing cell viability: MiaPaCa-2 cells, FIG. 1. The protocol:
All cell lines were obtained from ATCC (Rockville, MD). Cells were cultured in standard media supplemented with 10% FBS: Panc 10.05, H1299 and H358 in RPMI-1640 Medium, MiaPaCa-2, HT29 and MDA-MB-231 in DMEM, LS180 in EMEM. All media were obtained from ATCC (Rockville, MD). Cells were seeded in 384-well plates at a density of 0.3×10^3 to 1×10^3 cells/well. On the next day, cells were treated with serially diluted gemcitabine or siRNAs delivered by Lipofectamine RNAiMAX (Life Technologies, Carlsbad, CA). Ninety-six (96) hours after addition of gemcitabine or transfection reagent, the number of viable cells was determined using CellTiter-Glo(R)-2.0 reagent (Promega, Madison, WI) by measuring luminescent signal on a Cytation 5 plate reader (BioTek Inc, Winooski, VT). All values were compared to values generated for cells treated with non-silencing (NS) siRNA or to non-treated control and reported as the percentage cell viability. Values represent the mean±SD (n=4). All values were normalized to values generated for cells treated with a non-silencing siRNA and reported as the percentage cell viability. Calculation ofEC50 values. The EC50 values of the Gemcitabine, or Gemcitabine-modified siRNAs, (half-maximal effective concentration) were derived from a sigmoidal dose-response (variable slope) curve using GraphPad Prism 10.0.2(232) software (GraphPad Software, San Diego, Ca). Combination index (CI) calculation. […] CI=([…])2, where (Dx)1 and (Dx)2 are the doses of drug 1 and drug 2, alone, inhibiting 50%, whereas (D1) is the dose of drug 1 in combination, and (D2) the dose of drug 2 in combination that gives the experimentally observed 50% inhibition. These siRNA constructs were tested for their ability to reduce viability of pancreatic cancer using Miapaca2 cells after lipofectamine transfection of the siRNAs at varying concentrations. All of the constructs could inhibit the viability of these cells by 100% at concentrations below 100 nM. The contribution of the gemcitabine within the constructs was studied by making and evaluating constructs lacking the gemcitabine.

The next data set relates to A549 (G12S) cells. Kind of data set: Cell viability assay, A549. Type of data set: cell-based. The protocol:
as §1

A further data set deals with H2030 (G12C) cells. Kind of data set: Cell viability assay, H2030. Type of data set: cell-based. The protocol:
as §1

For the next data set, the system named is MDA-MB-231 (TNBC) cells. Description: Cell viability assay (CellTiter-Glo), lipofectamine transfection, MDA-MB-231. The conditions noted are these: MDA-MB-231 cells, FIG. 2K. Type of data set: cell-based. The protocol:
as §1, with “All cell lines were obtained from ATCC (Rockville, MD). Cells were cultured in standard media supplemented with 10% FBS: Panc 10.05, H1299 and H358 in RPMI-1640 Medium, MiaPaCa-2, HT29 and MDA-MB-231 in DMEM, LS180 in EMEM. All media were obtained from ATCC (Rockville, MD). Cells” for “Cells”

In a further data set the test system is H1299 (KRAS wt) cells. Kind of data set: Cell viability assay (CellTiter-Glo), lipofectamine transfection, H1299. The format is cell-based. The protocol: as §2
as §1, with “viability.” for “viability. Calculation ofEC50 values. The EC50 values of the Gemcitabine, or Gemcitabine-modified siRNAs, (half-maximal effective concentration) were derived from a sigmoidal dose-response (variable slope) curve using GraphPad Prism 10.0.2(232) software (GraphPad Software, San Diego, Ca).”
as §3

Data set [3] can be described thus: PNP particle size and zeta potential by dynamic light scattering. Type of data set: physicochemical. On the set-up: Nanoparticle size: unit not given here. Particulars: for Nanoparticle size: siRNA formulated with HKP(+H), dynamic light scattering. The protocol:
To test the efficacy of the products in vivo siRNAs (non-silencing siRNA (Control; NS), and PGN6) were formulated with a branched histidine lysine polymer (HKP (+H)) to form peptide nanoparticle (PNP) formulations were prepared using a microfluidic mixing system with a staggered herringbone patterned mixer (Precision NanoSystems, Vancouver, BC, Canada). HKP(+H) stock was prepared in water and diluted to appropriate concentrations. PolyGem siRNA or non-silencing (NS) siRNA stocks were prepared in water. The HKP(+H) and siRNA were mixed at a volume ratio of 1:1 at 8-10 mL/min total flow rate. Formulations were incubated for 30 min at room temperature. Particle size and zeta potential were then determined by dynamic light scattering with a Zetasizer Ultra (Malvern Panalytical, MA). A gel retardation assay was used to evaluate the efficiency of complex formation. Briefly, pre-formed PNPs were mixed with RNA loading dye and applied to 2% agarose gel. The gel was run in 0.5×TBE for 15 min. Electrophoretic mobility of the siRNA-nanoparticles was analyzed on a gel imaging system.

As a reminder, the IC50 is the concentration at which inhibition is half-maximal. Regarding “PGN7: Chk1-targeting siRNA, 2′OMe/2′-fluoro modified, four gemcitabine nucleosides; SEQ ID Nos. 5-6 (chain 1 AAGAAAGAGAUCUGUAUCAAU; chain 2 AUUGAUACAGAUCUCUUUCUUCCUU; 2'-OMe/2'-F modified, four gemcitabine nucleosides, full pattern not given here)”, the “Activity/efficacy in reducing cell viability” value (in data set [1]; in the data set on MDA-MB-231 (TNBC) cells) was “greater potency” each time. In addition, the IC50 in the data set on H358 cells (KRAS G12C) was ~1 nM; in the data set with A549 (G12S) cells, ~6 nM; in the data set with H2030 (G12C) cells it was 3 nM; with H1299 (KRAS wt) cells it was ~6 nM. Moreover, in data set [2], the “Improvement of dose response over gemcitabine alone” value is listed as 100 fold.
For the compound “PGN6: Chk1-targeting siRNA, 2′OMe/2′-fluoro modified, four gemcitabine nucleosides; SEQ ID Nos. 3-4 (chain 1 AAGAAAGAGAUUCGUAUCAAU; chain 2 AUUGAUACAGAUCUCUUUCUUCCUU; 2'-OMe/2'-F modified, four gemcitabine nucleosides, full pattern not given here)”, the Zeta potential in data set [3] (siRNA formulated in HKP(+H)) amounted to 35.8 mV. For the same compound, the Nanoparticle size in data set [3] is 86.7. In addition, the “Activity/efficacy in reducing cell viability” value (in data set [1]; in the data set on MDA-MB-231 (TNBC) cells) was “greater potency” each time. The “Improvement of dose response over gemcitabine alone” value in data set [2] is reported as 100 fold.
As for “PGN7S (sense AAGAAAGAGAUCUGUAUCAAU; antisense AUUGAUACAGAUCUCUUUCUUCCDUDU; gemcitabine nucleotides; phosphorothioates; 5' LS on antisense; modified_base 1 OTHER; 2'-O-methyl adenosine; modified_base 9 OTHER; 2'-fluoro-guanosine; modified_base 15 OTHER; 2'-fluorouracil; modified_base 21 OTHER; modified_base 16 OTHER; modified_base 6 OTHER; modified_base 17 OTHER; modified_base 19 OTHER; modified_base 5 OTHER; m; modified_base 3 um; modified_base 4 gm; modified_base 7 OTHER; 2)”, the “Activity/efficacy in reducing cell viability” value in data set [2] is on record as “weaker activity than either PGN6 or PGN7”.
As to “PGN6 (no Gem): Modified Chk1 siRNA as PGN6 lacking gemcitabine; SEQ ID Nos. 7-8 (chain 1 AAGAAAGAGAUCUGUAUCAAU; chain 2 AUUGAUACAGAUCUCUUUCUUTT; chain 1: sugars from the 5' end mmmmmmfmffffmmmmmfmmm, backbone not given here; chain 2: sugars from the 5' end mfmmmfmmmmmmmfmffffffdd, backbone not given here; further chemistry not fully specified)”, the “Activity/efficacy in reducing cell viability” value in data set [2] is reported as “did not show good efficacy at higher concentrations”.
For “PGN7 (no Gem): Modified Chk1 siRNA as PGN7 lacking gemcitabine; SEQ ID Nos. 9-10 (chain 1 AAGAAAGAGAUCUGUAUCAAU; chain 2 AUUGAUACAGAUCUCUUUCUUTT; chain 1: sugars from the 5' end mmmmmmfmfffffmfmffmmf, backbone not given here; chain 2: sugars from the 5' end mfmmmfmmmmmfmfmfmfmfmdd, backbone not given here; further chemistry not fully specified)”, the “Activity/efficacy in reducing cell viability” value in data set [2] is listed as “did not show good efficacy at higher concentrations”.
Compound “Non-Silencing: Non-silencing siRNA control; SEQ ID Nos. 1-2 (chain 1 CGAGCAGGGUAUCGACGAUUACAAA; chain 2 UUUGUAAUCGUCGAUACCCUGCUCG; RNA, backbone not given here; listed as Homo sapiens) [reference compound]” came in with a Nanoparticle size in data set [3] of 82.6.
Take `Nc1ccn([C@@H]2O[C@H](CO)[C@@H](O)C2(F)F)c(=O)n1` [gemcitabine, 2′-deoxy-2′,2′-difluorocytidine monohydrochloride]: the IC50 in data set [2] (Homo sapiens, MIA PaCa-2, MiaPaca-2 cells, 96 h, free gemcitabine or siRNA by lipofectamine) is > 10 nM.
